Where “and” joins values, the source holds several entries; their conditions need not be identical. Equal entries are not always repeated.
Experiments:
diabetic NOD mice [1] = experiment: Hematoxylin-Eosin staining of pancreatic islets of NOD mice; format: in vivo, mouse; conditions: WCDD301-treated diabetic NOD mice
[2] = Plasma stability assay, human plasma; format: in vitro ADME; conditions: for Ln (% Remaining): human plasma, 37°C, Figure 5A
Protocol: Pooled frozen plasma of CD-1 mice (n = 20; catalog MSE00PLK2M2N, Beijing Vital River Laboratory Animal Technology) or humans (n = 6, catalog […]2P2N, Bioreclamation IVT), equal numbers of males and females, was thawed in a 37°C water bath, and residual clots were removed by centrifugation (500g for 5 minutes). Plasma (98 μL) was aliquoted in each well of 96-well reaction plates using an Apricot automation workstation. WCDD301 (100 μM) or propantheline bromide (100 μM, as a positive control) was added (2 μL/well) to sets of wells assigned to blank or time points (T0, T10, T30, T60, and T120 minutes) and incubated at 37°C. At each time point, the reaction was stopped by adding stop solution (500 μL; a mixture of 200 ng/mL of tolbutamide and labetalol in acetonitrile), mixed thoroughly, sealed, shaken (20 minutes), and centrifuged (1,750g, 4°C, 20 minutes). A total of 150 μL of the supernatant from each well of the reaction plate was transferred to its corresponding bioanalysis plate for LC-MS/MS analysis. The remaining level (%) of the WCDD301 was calculated using the following equation: remaining (%) = (PAR at each time point/PAR at T0) × 100. PAR stands for the peak area ratio of the WCDD301 versus internal standard.

diabetic NOD mice [3] = experiment: Plasma glucagon in NOD mice after treatment; format: in vivo, mouse; design: Plasma glucagon: unit not given beside the values
Protocol: (§1) Terminal blood was collected into microfuge tubes containing K2-EDTA (supplemented by 45 mM phenylmethylsulphonyl fluoride and 0.77 μM aprotinin) through cardiac puncture. Plasma was separated by centrifugation (2,000g for 10 minutes at 4°C) and kept at –80°C until analysis. Plasma samples with hemolysis were excluded from the study. […] Values of BUN, creatinine, ALB, ALT, and AST were determined by a Roche Cobas C501 Autoanalyzer as performed by the Washington University Diabetes Research Center Translational Diagnostics Core. Reference intervals of blood chemistry parameters for inbred NOD mice were extracted from the Mouse Phenome Database (https://phenome.jax.org/).

[4] = tested on: STZ-induced diabetic mice; experiment: Blood glucose in STZ-induced diabetic mice, once-daily oral WCDD301; format: in vivo, mouse; design: Blood glucose: unit: mg/dL; conditions: for Blood glucose: WCDD301 10 mg/kg oral once daily, 10 mg/kg
Protocol: Six cohorts of C57BL/6 mice (n = 10 each, equal numbers of females and males; the Jackson Laboratory) were fasted for 5 hours and injected intraperitoneally with 40 mg/kg STZ solution (MilliporeSigma, catalog 572201) for 5 consecutive days. STZ solution (40 mg/mL) was prepared within 5 minutes before injection using freshly prepared citrate buffer (0.1 M, pH 4.5). Nine days after the last injection, blood glucose levels were measured for 2 consecutive days, and those animals with constant values of 300 ± 20 mg/dL were considered as having early severe hyperglycemia.
We prepared sustained time-release pearls for oral administration in the mouse models. To this end, we combined FDA-approved excipients of Eastman BioSustane SAIB NF (product code: 41271-00, sample distribution from Eastman Company, Kingsport, Tennessee, USA; provided by Phillip Cook) and Agar (Lamda Biotech, catalog C110) at the ratio of 1:1.45 (w/w). We also prepared another type of sustained time-release pearl by mixing SAIB, Agar, and L (-) malic acid (MilliporeSigma, catalog 202-601-5) at the ratio of 1:1.4:0.2 (w/w/w). A homogenous paste mixture was prepared, and pearls were formed with 50–60 mg weight and approximately 2 mm diameter by pinching off the mixture and manually rolling.
We preweighed WCDD301 into microfuge tubes and reconstituted it using deionized water. Using a 10 μL pipette tip, we placed the calculated dose of WCDD301 (at the volume range of 1–1.5 μL) within the center of pearls. WCDD301 was placed into pearls 30–45 minutes before administration. For oral administration of pearls, we designed an applicator using a disposable plastic transfer pipette and syringe plunger lubricated with olive oil. Food intake and body weight in each experimental group (diabetic WCDD301-treated, diabetic placebo-treated, and nondiabetic placebo-treated NOD mice) were monitored daily for 4 weeks. Urine glucose was measured from individually caged NOD mice (nondiabetic placebo treated n = 2, diabetic placebo treated n = 2, and diabetic WCDD301 treated n = 4, 21–23 weeks old) with metabolic cages. Urine glucose was monitored every 24 hours for 10 days by semiquantitative measurements (P-STICKS, Millpledge Veterinary).
We applied the following therapeutic regimens in the fed state for oral dosing of pearls containing WCDD301. The therapeutic regimen for diabetic NOD mice with moderate hyperglycemia (n = 6–9; 6 females/3 males) or nondiabetic ones with blood glucose levels of < 140 mg/dL (females, n = 5) was dose 7.5 mg/kg, dosage once a day, and excipient SAIB-Agar, 50–60 mg. The therapeutic regimen for STZ-induced diabetic mice with early severe hyperglycemia (n = 3, placebo group; n = 4 treatment group, females) was dose 10 mg/kg, dosage once a day, and excipient SAIB-Agar-malic acid, 50–60 mg.

diabetic NOD mice [5] = experiment: Plasma somatostatin in NOD mice; format: in vivo, mouse; design: unit not given beside the values; conditions: WCDD301 group of NOD mice; quantity not given
Protocol: as §1

For `CC(=O)OCC(N)(COC(C)=O)COC(C)=O` [WCDD301, 2-(acetoxymethyl)-2-aminopropane-1,3-diyl diacetate], the “Mononuclear cell infiltration and edema (Hematoxylin-Eosin)” value (diabetic NOD mice [1]) was “no mononuclear infiltration or apparent edema”, the half-life at 2 µM ([2]; both sexes, human, plasma) was 4.82 h and the “Stability in human plasma versus mouse plasma” value ([2]; human higher than mouse) was over 2.7 fold. The “Ln (% Remaining)” value ([2]; 10 min) was -0.03128, the “Ln (% Remaining)” value ([2]; 30 min) was -0.148 and the “Ln (% Remaining)” value ([2]; 60 min) was 0.05816. For the same molecule, the “Ln (% Remaining)” value ([2]; 120 min) was 0.01827, the Plasma glucagon (diabetic NOD mice [3]; WCDD301-treated diabetic NOD mice, per mouse, Figure 6B) was 22.15 and 11 and 44 and 25 and 47 and the “Effect on plasma glucagon” value (diabetic NOD mice [3]; diabetic NOD mice) was “suppression of glucagon levels”. The Effect on hyperglycemia ([4]; 4-week dosing) was “normalized hyperglycemia”, the Blood glucose ([4]; Week 1, per mouse, before dosing 277-300, Figure 6F) was 205 and 210 and 206 and 240 and the Blood glucose ([4]; Week 2, per mouse, Figure 6F) was 180 and 170 and 145 and 210. For the same molecule, the Blood glucose ([4]; Week 3, per mouse, Figure 6F) was 145 and 150 and 135 and 156, the Blood glucose ([4]; Week 4, per mouse, Figure 6F) was 125 and 119 and 121 and 130 and the “Plasma somatostatin (Figure 7C)” value (diabetic NOD mice [5]) was 310.49 and 318.85 and 327.2 and 342.5.

— paper PMC10906223 (JCI Insight, 2024)
